Results published in patent US20240317828A1, “T CELL ACTIVATING IMMUNOTHERAPEUTIC FOR TREATMENT OF MUCIN 1 PROTEIN EXPRESSING HUMAN CANCERS” (PDS BIOTECHNOLOGY CORPORATION, priority 2022, published 2024).
Blank lines part the entries; values can stand above or below the substance they belong to. Where no end group is shown, it is not given here.

What was measured:
[1] = system: MUC1 antigen-specific T cells; test: ELISPOT of MUC1 antigen-specific T cells in spleens of vaccinated HLA-A2 transgenic mice; format: in vivo, HLA-A2 expressing transgenic mice (AAD mice); conditions: for antigen strength (immune response): lipidated peptide in the micellar peptide antigen component of the R-DOTAP vaccine; for antigen delivery to dendritic cells and immune cell activation: FIGS. 4 and 5, anionic SSEEDE N-terminal extension, formulated with R-DOTAP nanoparticles and micellar mixture of six lipidated peptides
Protocol: As illustrated in FIG. 4 HLA-A2 specific CD8 T cell responses to formulations including peptide antigen SSEEDE-C1A (SEQ ID NO:18) and SSEEDE-C2A (SEQ ID NO:19) formulated with R-DOTAP nanoparticles and a micellar mixture with six lipidated peptide agonist antigens, pC3A: (SEQ ID NO:15), pV1A: (SEQ ID NO:2), pV2A: (SEQ ID NO:3), pC5A: (SEQ ID NO:4), pC6A: (SEQ ID NO:5), pP93L: (SEQ ID NO: 16) were evaluated. […] The efficacy of these vaccine formulations in generating T cell responses was measured by dosing HLA-A2 expressing transgenic mice (AAD mice) with two 0.1 ml injections of the vaccine delivered subcutaneously on day 0 and day 7. Negative control groups mice were vaccinated with MUC1 peptides formulated in sucrose buffer. Immune responses specific to vaccine formulation were measured in an ELISPOT assay by enumerating MUC1 antigen-specific T cells, in triplicate wells, in the spleens obtained from vaccinated mice. Each bar in the graph represents the mean SFU per 250,000 splenocytes for a group of vaccinated mice. Error bars represent mean±SEM for five mice in each group. For identifying MUC1-specific T cells, splenocytes were stimulated with peptide sequences C1A (SEQ ID NO:9: YLAIVYLIAL), C2A (SEQ ID NO:10), V1A (SEQ ID NO:13), V2A (SEQ ID NO:14:) C3A (SEQ ID NO:12) and p93L (SEQ ID NO:11)
As shown in FIG. 5 HLA-A2 specific CD8 T cell responses to formulations including peptide antigen SSEEDE-C1A (SEQ ID NO:9) and SSEEDE-C2A ([…]) formulated with R-DOTAP nanoparticles and a micellar mixture with six lipidated peptide agonist antigens, pC3A: (SEQ ID NO:15), pV1A: (SEQ ID NO:2), pV2A: (SEQ ID NO:3), pC5A: (SEQ ID NO:4), pC6A: (SEQ ID NO:5), pP93L: (SEQ ID NO:16) were assessed. […] The efficacy of these vaccine formulations in generating T cell responses was measured by dosing HLA-A2 expressing transgenic mice (AAD mice) with two 0.1 ml injections of the vaccine delivered subcutaneously on day 0 and day 7. Negative control groups mice were vaccinated with MUC1 peptides formulated in sucrose buffer. Immune responses specific to vaccine formulation were measured in an ELISPOT assay by enumerating MUC1 antigen-specific T cells, in triplicate wells, in the spleens obtained from vaccinated mice. Each bar in the graph represents the mean SFU per 250,000 splenocytes for a group of vaccinated mice. Error bars represent mean±SEM for five mice in each group. For identifying MUC1-specific T cells, splenocytes were stimulated with peptide sequences C1A (SEQ ID NO:9: YLAIVYLIAL), C2A (SEQ ID NO:10), V1A (SEQ ID NO:13), V2A (SEQ ID NO:14) C3A (SEQ ID NO:12) and p93L (SEQ ID NO:11).
Control peptide antigen formulations were prepared with 0.5 ml of Montanide plus CpG, or “NCI adjuvant” formulation consisting of 50 μg/ml GM-CSF, 20 μg/ml IL-12, 0.8 mg/ml HBV core (128-140) peptide in incomplete Freund's adjuvant. The efficacy of these vaccine formulations in generating T cell responses was measured by dosing HLA-A2 expressing transgenic mice (AAD mice) with two 0.1 ml injections of the vaccine delivered subcutaneously on day 0 and day 7. Control group mice were vaccinated with MUC1 peptides formulated in sucrose buffer alone. Immune responses specific to vaccine formulation were measured in an ELISPOT assay by enumerating MUC1 antigen-specific T cells, in triplicate wells, in the spleens obtained from vaccinated mice. Each data point in the graph represents the mean SFU per 250,000 splenocytes in vaccinated mice. Error bars represent mean±SEM for five mice in each group. For identifying MUC1-specific T cells, splenocytes were stimulated with peptide sequences C1A (SEQ ID NO:9: YLAIVYLIAL).
Control peptide antigen formulations were prepared with 0.5 ml of Montanide plus CpG, or “NCI adjuvant” formulation consisting of 50 μg/ml GM-CSF, 20 μg/ml IL-12, 0.8 mg/ml HBV core (128-140) peptide in incomplete Freund's adjuvant. […]

[2] = system: HLA-A2, A3, A11 and A24; test: MHC-binding specificity of MUC1 peptide antigens (HLA binding / HLA affinity); parameters: species or system human; conditions: agonist sequence; HLA allele the peptide binds; listed as VIA
Text: Within the human mucin 1 oncoprotein multiple high affinity MHC-binding peptide antigens specific for HLA-A2, A3, A11 and A24 have been identified (Table 1). MHC-binding peptide antigens specific for HLA-A2 have been identified: YLAIVYLIAL (SEQ ID NO:9, C1A), YLIALAVCQV (SEQ ID NO:10, C2A), YLAPPAHGV (SEQ ID NO:13, VIA) and YLDTRPAPV (SEQ ID NO:14, V2A).

[3] = Aqueous solubility of peptide antigens; conditions: unmodified hydrophobic agonist peptides
[4] = FIG. 8, long peptide mixed with R-DOTAP

Substance: KSS-YLAPPAHGV (not fully specified; lipidated; SITE 1 Epsilon-palmitoyl modified residue) [pV1A, lipidated MUC1 agonist peptide]
antigen strength (immune response) ([1]; FIGS. 3 and 7): strong antigens

Substance: KSS-YLDTRPAPV (not fully specified; lipidated; SITE 1 Epsilon-palmitoyl modified residue) [pV2A, lipidated MUC1 agonist peptide]
antigen strength (immune response) ([1]; FIGS. 3 and 7): strong antigens

Substance: SSEEDE-YLAIVYLIAL (SSEEDEYLAIVYLIAL) [SSEEDE-C1A, C1A with cleavable anionic N-terminal extension SSEEDE]
antigen delivery to dendritic cells and immune cell activation [1]: effective delivery

Substance: SSEEDE-YLIALAVCQV (SSEEDEYLIALAVCQV) [SSEEDE-C2A, C2A with cleavable anionic N-terminal extension SSEEDE]
antigen delivery to dendritic cells and immune cell activation [1]: effective delivery

Substance: YLAIVYLIAL [C1A]
C1A-specific T cell response (immunoactivity) ([1]; FIG. 1, peptide inserted into lipid bilayer of R-DOTAP nanoparticle, two 0.1 ml s.c. injections day 0 and 7, splenocytes stimulated with C1A): effective immunoactivity
immune response ([1]; FIG. 8, short peptides encapsulated (incorporated into the R-DOTAP bilayer)): did generate a significant response
immune response ([1]; FIG. 8, short peptides mixed with R-DOTAP): did not generate a significant response
immune response (HLA-A2 specific CD8 T cell) ([1]; FIGS. 3 and 7, peptides inserted into R-DOTAP nanoparticle lipid bilayer, with micellar lipidated V1A/V2A, 3 mg R-DOTAP per ml): strong immune responses
generation of immune responses ([1]; peptide included in antigen mixtures mixed/formulated with R-DOTAP nanoparticles (not inserted in bilayer)): ordinarily inactive

Substance: YLAIVYLIALAVCQVRRKNYGQLDIFPARDKYHPMSEYAL [YL40]
antigen specific responses to antigens C1A and C2A ([1]; FIG. 6, long peptide with lipidated peptide micelles and 3 mg R-DOTAP in 1 ml): strong antigen specific responses
C1A response (activity) [1, 4]: induces a significant C1A response
C1A specific T-cell responses ([1]; FIGS. 6 and 7, long peptide delivered with R-DOTAP nanoparticles): high level detection

HLA Binding [2]: HLA-A2
Substance: YLAPPAHGV (not fully specified) [V1A, MUC1 agonist peptide antigen]
antigen strength (immune response) ([1]; FIGS. 3 and 7): strong antigens

Substance: YLDTRPAPV (not fully specified) [V2A, MUC1 agonist peptide antigen]
antigen strength (immune response) ([1]; FIGS. 3 and 7): strong antigens

aqueous solubility [3]: limited aqueous solubility
Substance: YLIALAVCQV [C2A, YLIALAVCQV]

Substance: YLIALAVCQVRRKNYGQLDIFPARDKYHPMSEYAL- [YL35]
C2A response [1, 4]: did not generate a significant C2A response
